For series [1], the system named is HBV replication in HepAD38 cells. The series can be described thus: Anti-HBV replication assay in HepAD38 cells (QPCR of extracellular HBV DNA). The format is cell-based, HBV (genotype D, serotype ayw). The conditions noted are these: Hepatitis B virus, 168 h, 7 days incubation, extracellular HBV DNA by QPCR, read-out: Anti-HBV EC50. The procedure, abridged:
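HepAD38 cells (HepG2 carrying tet-repressible HBV genotype D genome) induced by tetracycline withdrawal, treated 7 days at 37 °C with compound ([…], 1-log10 dilutions). Extracellular HBV DNA quantified by QPCR against a standard curve, normalised to DMSO; EC50 from 4-parameter fit.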

Series [2] can be described thus: In vitro cytotoxicity assay (MTT cell viability) in HepG2 cells. The format is cell-based, human. The conditions noted are these: human. The method in brief: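 Viability measured by MTT conversion, absorbance at 492 nm, as percent of vehicle-treated wells. Compounds spanned 30 μM to 1.0 nM in half-log steps over a 7-day exposure of parental HepG2 cells; CC50 derived by 4-parameter curve fit.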

For orientation: EC50 means the concentration giving half of the maximal effect. Usually CC50 stands for the concentration at which the toxic effect on the cells reaches its halfway point. A high value points to better tolerance by the cells.

Consider `Cc1cc(NC(=O)c2c(C)c(C(=O)C(=O)NC3(C(F)(F)F)CCOCC3)n(C)c2C)ccc1F` [Example 109, N-(4-fluoro-3-methylphenyl)-1,2,4-trimethyl-5-(2-oxo-2-((4-(trifluoromethyl)tetrahydro-2H-pyran-4-yl)amino)acetyl)-1H-pyrrole-3-carboxamide], for which, in series [1], the EC50 was less than 50 nM. The same molecule yielded a CC50 at 7 days in series [2] greater than 30000 nM.

Take `CCn1c(C)c(C(=O)Nc2ccc(F)c(C)c2)c(C)c1C(=O)C(=O)N[C@]1(C)CC[C@@H](O)CC1` [Example 696]: the EC50 in series [1] was less than 50 nM. Also, in series [2], the CC50 at 7 days was greater than 30000 nM.

With `Cc1c(C(=O)Nc2ccc(F)c(F)c2)c(C)n(C)c1C(=O)C(=O)NC1CCC(F)(F)CC1` [Example 298, 5-(2-((4,4-difluorocyclohexyl)amino)-2-oxoacetyl)-N-(3,4-difluorophenyl)-1,2,4-trimethyl-1H-pyrrole-3-carboxamide], the EC50 in series [1] is less than 50 nM. The CC50 at 7 days in series [2] is greater than 30000 nM.

As to `Cc1cc(NC(=O)c2c(C)c(C(=O)C(=O)N[C@@H]3CCOC[C@H]3O)n(C)c2C)ccc1F` [Example 149, N-(4-fluoro-3-methylphenyl)-5-(2-(((3S,4R)-3-hydroxytetrahydro-2H-pyran-4-yl)amino)-2-oxoacetyl)-1,2,4-trimethyl-1H-pyrrole-3-carboxamide], in series [1], the EC50 was less than 50 nM. In series [2], this molecule yielded a CC50 at 7 days greater than 30000 nM.

Take `Cc1cc(NC(=O)c2cc(C(=O)C(=O)NC[C@@H](O)CO)n3c2CCCC3)ccc1F` [Example 415, (R)-3-(2-((2,3-dihydroxypropyl)amino)-2-oxoacetyl)-N-(4-fluoro-3-methylphenyl)-5,6,7,8-tetrahydroindolizine-1-carboxamide]: in series [1], the EC50 was greater than 1000 nM. In series [2], this molecule registered a CC50 at 7 days greater than 30000 nM.

Take `Cc1cc(NC(=O)c2c(C)c(C(=O)C(=O)N[C@H]3COC[C@@H]3O)n3c2CCCC3)ccc1F` [Example 439, N-(4-fluoro-3-methylphenyl)-3-(2-(((3S,4R)-4-hydroxytetrahydrofuran-3-yl)amino)-2-oxoacetyl)-2-methyl-5,6,7,8-tetrahydroindolizine-1-carboxamide]: the EC50 in series [1] was in the range of 50 to 499 nM. Also, the CC50 at 7 days in series [2] is greater than 30000 nM.

Take `Cc1cc(NC(=O)c2c(C)c(C(=O)C(=O)NCC(C)(C)O)n(C)c2Cl)ccc1F` [Example 388, 2-chloro-N-(4-fluoro-3-methylphenyl)-5-(2-((2-hydroxy-2-methylpropyl)amino)-2-oxoacetyl)-1,4-dimethyl-1H-pyrrole-3-carboxamide]: the EC50 in series [1] was greater than 1000 nM. This molecule also gave a CC50 at 7 days in series [2] of 5000 to 30000 nM.

`Cc1cc(NC(=O)c2c(C)c(C(=O)C(=O)N[C@@H]3CC[C@@H](O)[C@@H]3O)n(CCF)c2C)ccc1F` [Example 197]: the EC50 in series [1] was 50 to 499 nM. In addition, the CC50 at 7 days in series [2] is greater than 30000 nM.

Take `COC(=O)[C@H](NC(=O)C(=O)c1c(C)c(C(=O)Nc2ccc(F)c(C)c2)c(C)n1C)[C@@H](C)O` [Example 46, methyl (2-(4-((4-fluoro-3-methylphenyl)carbamoyl)-1,3,5-trimethyl-1H-pyrrol-2-yl)-2-oxoacetyl)-D-allothreoninate]: in series [1], the EC50 is less than 50 nM. The CC50 at 7 days in series [2] is greater than 30000 nM.

With `Cc1cc(NC(=O)c2c(C)c(C(=O)C(=O)NC(C)(C)C(=O)OC(C)(C)C)n(C)c2C)ccc1F` [Example 22, tert-butyl 2-(2-(4-((4-fluoro-3-methylphenyl)carbamoyl)-1,3,5-trimethyl-1H-pyrrol-2-yl)-2-oxoacetamido)-2-methylpropanoate], in series [1], the EC50 is less than 50 nM. In series [2], this molecule came in with a CC50 at 7 days greater than 30000 nM.

With `CO[C@H]1CC[C@H](NC(=O)C(=O)c2c(C)c(C(=O)Nc3ccc(F)c(C)c3)c(C)n2C)CC1` [Example 269, N-(4-fluoro-3-methylphenyl)-5-(2-(((1r,4r)-4-methoxycyclohexyl)amino)-2-oxoacetyl)-1,2,4-trimethyl-1H-pyrrole-3-carboxamide], in series [1], the EC50 was less than 50 nM. The CC50 at 7 days in series [2] was in the range of 5000 to 30000 nM.

`Cc1c(C(=O)Nc2ccc(F)c(F)c2)c2n(c1C(=O)C(=O)N[C@H]1C[C@H](O)C1)CCCC2` [Example 456, N-(3,4-difluorophenyl)-3-(2-(((1r,3r)-3-hydroxycyclobutyl)amino)-2-oxoacetyl)-2-methyl-5,6,7,8-tetrahydroindolizine-1-carboxamide]: the EC50 in series [1] was in the range of 500 to 1000 nM. In addition, the CC50 at 7 days in series [2] was greater than 30000 nM.

As for `Cc1cc(NC(=O)c2c(C)c(C(=O)C(=O)NC3(C)CCN(c4ncccn4)CC3)n(C)c2C)ccc1F` [Example 691, N-(4-fluoro-3-methylphenyl)-1,2,4-trimethyl-5-(2-((4-methyl-1-(pyrimidin-2-yl)piperidin-4-yl)amino)-2-oxoacetyl)-1H-pyrrole-3-carboxamide], the EC50 in series [1] was less than 50 nM. Also, the CC50 at 7 days in series [2] is greater than 30000 nM.

Turning to `Cc1cc(NC(=O)c2c(C)c(C(=O)C(=O)NC(C)(C)c3nc(CN(C)C)no3)n3c2CCCC3)ccc1F` [Example 437, 3-(2-((2-(3-((dimethylamino)methyl)-1,2,4-oxadiazol-5-yl)propan-2-yl)amino)-2-oxoacetyl)-N-(4-fluoro-3-methylphenyl)-2-methyl-5,6,7,8-tetrahydroindolizine-1-carboxamide], the concentration giving a half-maximal response (EC50) in series [1] lay in the range of 50 to 499 nM. The CC50 at 7 days in series [2] is greater than 30000 nM.

Regarding `Cc1c(C(=O)Nc2ccc(F)c(Cl)c2)c2n(c1C(=O)C(=O)NC1(CO)CC(F)(F)C1)CCCC2` [Example 465, N-(3-chloro-4-fluorophenyl)-3-(2-((3,3-difluoro-1-(hydroxymethyl)cyclobutyl)amino)-2-oxoacetyl)-2-methyl-5,,6,7,8-tetrahydroindolizine-1-carboxamide], in series [1], the EC50 was less than 50 nM. The molecule further displayed a CC50 at 7 days in series [2] of 5000 to 30000 nM.

As to `Cc1cc(NC(=O)c2c(C)c(C(=O)C(=O)Nc3cccnc3)n(C)c2C)ccc1F` [Example 204, N-(4-fluoro-3-methylphenyl)-1,2,4-trimethyl-5-(2-oxo-2-(pyridin-3-ylamino)acetyl)-1H-pyrrole-3-carboxamide], the EC50 in series [1] is less than 50 nM. In series [2], this molecule gave a CC50 at 7 days greater than 30000 nM.

As to `Cc1c(C(=O)Nc2ccc(F)c(F)c2)c(C)n(C)c1C(=O)C(=O)NC1(CO)CCCCC1` [Example 616, N-(3,4-difluorophenyl)-5-(2-((1-(hydroxymethyl)cyclohexyl)amino)-2-oxoacetyl)-1,2,4-trimethyl-1H-pyrrole-3-carboxamide], the 50% effective concentration (EC50) in series [1] is less than 50 nM. For the same molecule, the CC50 at 7 days in series [2] is greater than 30000 nM.

Consider `Cc1cc(NC(=O)c2c(C)c(C(=O)C(=O)NC(C)(C)C)n(CCF)c2C)ccc1F` [Example 115, 5-(2-(tert-butylamino)-2-oxoacetyl)-N-(4-fluoro-3-methylphenyl)-1-(2-fluoroethyl)-2,4-dimethyl-1H-pyrrole-3-carboxamide], for which the 50% effective concentration (EC50) in series [1] was less than 50 nM. The molecule also gave a CC50 at 7 days in series [2] greater than 30000 nM.

On to `CC(C)(CO)NC(=O)C(=O)c1cc(C(=O)Nc2ccc(F)c(F)c2)c2n1CCCC2` [Example 426, N-(3,4-difluorophenyl)-3-(2-((1-hydroxy-2-methylpropan-2-yl)amino)-2-oxoacetyl)-5,6,7,8-tetrahydroindolizine-1-carboxamide], for which the EC50 in series [1] was in the range of 50 to 499 nM. The same molecule registered a CC50 at 7 days in series [2] greater than 30000 nM.

As to `Cc1cc(NC(=O)c2c(C)c(C(=O)C(=O)NC3(CO)CCCC3)n(C)c2C)ccc1F` [Example 359, N-(4-fluoro-3-methylphenyl)-5-(2-((1-(hydroxymethyl)cyclopentyl)amino)-2-oxoacetyl)-1,2,4-trimethyl-1H-pyrrole-3-carboxamide], the EC50 in series [1] is less than 50 nM. For the same molecule, the CC50 at 7 days in series [2] is greater than 30000 nM.

The values are drawn from patent US20190375708A1 (VenatoRx Pharmaceuticals, Inc., priority 2018, published 2019).
